Entries after “also recorded” stand apart in the source; their conditions may differ.
Key:
[1] = tested on: 2057del2 plakoglobin zebrafish; assay: Survival and cardiac physiology in the zebrafish model of ACM; format: in vivo; settings: data not shown
Description: In-house software (implemented in MATLAB™) was used to determine heart rate, while measurements of ventricular long and short axes in both diastole and systole were obtained using ImageJ™. Cardiac output was measured as diastolic minus systolic ventricular volume multiplied by heart rate, as outlined by Shin et al (30). Fractional shortening was calculated as end-diastolic diameter minus end-systolic diameter divided by end-diastolic diameter.
Survival studies: Embryos were kept in petri dishes until 7 dpf and then transferred to nursery tanks with larval food. Observations for phenotype and survival were recorded for several weeks. Data are presented as a Kaplan-Meier curve using Graphpad™ software.

[2] = tested on: neonatal rat ventricular myocytes expressing 2057del2 plakoglobin; assay: Immunofluorescence of intercalated disk proteins in neonatal rat ventricular myocytes; format: cell-based; settings: cells expressing 2057del2 plakoglobin; 5 μM, 24 hr
Description: Neonatal rat ventricular myocyte isolation and culture, stretch protocols: Primary cardiac myocyte cultures were prepared from ventricles of 1-day-old Wistar rat pups (Charles River) as previously described.^9 Cells were plated on collagen-coated plastic chamber slides at a density of […] cells/cm^2 and grown for 4 days prior to experimentation. In selected experiments, monolayers grown on collagen--coated silicone membranes were subjected to linear pulsatile stretch using a custom-designed apparatus as described in previous studies.'° Cells were stretched to 110% of resting length at a. frequency of 3 Hz for 1-4 hr in serum-free medium. In other experiments cultures were incubated with reagents including pifitlirin A (5 μM, 1 hr) and SB216763 (5 μM, 24 hr) prior to experimentation. All protocols were approved by the Institutional Animal Care and Use Committee (IACUC).
Viral transfection: A recombinant adenoviral construct expressing 2057del2-plakoglobin was created with the ViraPower Adenoviral Expression system (Invitrogen) using the pAd/CMV/V5-DEST vector through LR clonase-mediated recombination. The V5-tag was used to identify the mutant protein and distinguish it from wildtype plakoglobin. Two days post-plating, monolayers were exposed to viral solution (1:130 dilution in serum-free media, 37° C.) for 1 hr after which viral solution was replaced with complete medium in the presence or absence of reagents.
Immunofluoresence staining and microscopy in cultured cells: Cultures were rinsed in serum-free medium and fixed in 4% paraformaldehyde at room temperature for 5 min or in acetone at −20° C. for 10 min. Fixed cells were immunostained with mouse monoclonal anti-plakoglobin (Sigma), anti-N-cadhcrin (Sigma), anti-Cx43 (Millipore), anti-desmopla.kin (Fitzgerald), anti-SAP97 (Santa Cruz Biotechnology) antibodies and anti-Nav1.5 (kindly provided by Dr. Hugues Abriel, University of Bern, Switzerland) antibodies. Specific immunoreactive signal was detected by laser scanning confocal microscopy as previously described.”
Neonatal rat ventricular myocyte isolation, culture, stretch protocols: Primary cardiac myocyte cultures were prepared from ventricles of 1-day-old Wistar rat pups (Charles River) as previously described (36). Cells were plated on collagen-coated plastic chamber slides at a density of 2.4×10^5 cells/cm2 and grown for 4 days prior to experimentation. In selected experiments, monolayers grown on collagen-coated silicone membranes were subjected to linear pulsatile stretch using a custom-designed apparatus as described in previous studies (35). Cells were stretched to 110% of resting length at a frequency of 3 Hz for 1-4 hr in serum-free medium. In other experiments cultures were incubated with reagents including pifithrin A (5 μM, 1 hr) and SB216763 (0.1-10 μM for 12 or 24 hr) prior to experimentation. Vehicle controls (DMSO) were included in all experiments.
Viral transfection: A recombinant adenoviral construct expressing 2057del2 plakoglobin was created with the ViraPower Adenoviral Expression™ system (Invitrogen) using the pAd/CMV/V5-DEST vector through LR clonase-mediated recombination. The V5-tag was used to identify the mutant protein and distinguish it from wildtype plakoglobin. Two days post-plating, monolayers were exposed to viral solution (1:130 dilution in serum-free media, 37° C.) for 1 hr after which viral solution was replaced with complete medium in the presence or absence of reagents. Immunofluorescence staining and microscopy in cultured cells: Cultures were rinsed in serum-free medium and fixed in 4% paraformaldehyde at 25° C. for 5 min or in acetone at −20° C. for 10 min. Fixed cells were immunostained with mouse monoclonal anti-plakoglobin (Sigma), anti-N-cadherin (Sigma), anti-Cx43 (Millipore), anti-desmoplakin (Fitzgerald), anti-SAP97 (Santa Cruz Biotechnology) antibodies and anti-Nav1.5 antibodies (rabbit polyclonal).

[3] = tested on: neonatal rat ventricular myocytes expressing 2057del2 plakoglobin; assay: TUNEL assay of myocyte apoptosis; format: cell-based
Description: TUNEL assay: Apoptotic cells in cultures were detected by terminal deoxynucleotidyl transferase-mediated biotinylated UTP nick end-labeling (TUNEL) assay using the ApopTag™ Fluorescein Direct in Situ Apoptosis Detection Kit (Millipore) as previously described.^9 Nuclei were stained with DAPI, and TUNEL-positive and total nuclei were counted under a laser scanning confocal microscope in 5 fields per chamber.
TUNEL assay: Apoptotic cells in cultures were detected by terminal deoxynucleotidyl transferase-mediated biotinylated UTP nick end-labeling (TUNEL) assay using the ApopTag Fluorescein Direct in Situ Apoptosis Detection KitTM (Millipore) according to the manufacturer's instructions. Nuclei were stained with DAPI; TUNEL-positive and total nuclei were counted under a laser scanning confocal microscope in 5 fields per chamber or silicone membrane in stretch experiments.

## O=C1Nc2cc(Br)ccc2/C1=C1/Nc2ccccc2/C1=N\O [BIO, 6-bromoindirubin-3′-oxime, reference compound]
[1]
  Effectiveness of other GSK-3β inhibitors in attenuating the mutant phenotype compared with SB216763: do not exhibit the therapeutic benefits; also recorded: none of which were as effective

## Cn1cc(C2=C(c3coc4ccccc34)C(=O)NC2=O)c2cc(Br)ccc21 [BIP 135, reference compound]
[1]
  Effectiveness of other GSK-3β inhibitors in attenuating the mutant phenotype compared with SB216763: none of which were as effective

## Cc1c[nH]c(-c2cnc(NCCNc3ccc(C#N)cn3)nc2-c2ccc(Cl)cc2Cl)n1 [CHIR99021, reference compound]
[2]
  Subcellular distribution of plakoglobin immunoreactive signal (junctional vs intracellular/nuclear): intensified plakoglobin signal in nuclei
[1]
  Effectiveness of other GSK-3β inhibitors in attenuating the mutant phenotype compared with SB216763: do not exhibit the therapeutic benefits; also recorded: none of which were as effective

## [Cl-].[Li+] [LiC1, reference compound]
[1]
  Effectiveness of other GSK-3β inhibitors in attenuating the mutant phenotype compared with SB216763: none of which were as effective

## O=C(Nc1ccc([N+](=O)[O-])cc1Cl)c1cc(Cl)ccc1O [niclosamide, reference compound]
[2]
  Subcellular distribution of plakoglobin immunoreactive signal (junctional vs intracellular/nuclear): increased nuclear localization of plakoglobin

## Cc1ccc(C(=O)Cn2c3c(sc2=N)CCCC3)cc1 [pifithrin-A, reference compound]
[3]; 4 hr of stretch, vs stretch without inhibitor
  Apoptosis in transfected myocytes exposed to stretch: significantly reduced apoptosis
[3]; pifithrin-A 5 μM
  Apoptosis in cells expressing 2057del2 plakoglobin: could be prevented

Source: US20160051514A1, “METHODS FOR TREATMENT OF CARDIOMYOPATHY” (THE BRIGHAM AND WOMEN'S HOSPITAL, INC., priority 2013, published 2016)
